According to patent publication US20240016831A1 (priority 2020, published 2024):

Columns and labels:
[1] = system: SARS-CoV-2 clinical isolate; type: cell-based
[2] = system: Vero E6 cells
[3] = type: physicochemical

Structure (SMILES): CCN(CC)CCCC(C)Nc1ccnc2cc(Cl)ccc12 (stereo not drawn) [chloroquine, Chloroquine Phosphate, reference compound]
- SARS-CoV-2 virus titre [1]: limit of detection (LOD)

Structure (SMILES): O=C(O)CC(O)(CC(=O)O)C(=O)O [citric acid pH 5.8, citric acid]
- in vitro antiviral action against SARS-CoV-2 [1]: high in vitro antiviral action
- cytotoxicity on the LDH assay [2]: low cytotoxicity

Structure (SMILES): OC[C@@H](O)[C@@H](O)[C@H](O)[C@H](O)CO [mannitol, D-mannitol]
- cumulative levels of NO ([3]; pH 5.8): 1400 nmol NO per mg nitrite
- difference in cumulative NO with and without mannitol ([3]; pH 6.2): differences have disappeared

Structure (SMILES): OC[C@@H](O)[C@H](O)[C@@H](O)CO [xylitol]
- cumulative nitric oxide evolution ([3]; after 3000 s): about 20000 nmol per mg nitrite
